This is an account of results in patent EP1018560A1, “VECTORS FOR TREATING CANCER” (Dnavec Research Inc., priority 1997, dated 1999).

Where a name gives a salt, the structure may show the parent alone. Starred links: 1 amine or outer side, 2 acyl side, 3 side chain; linkers in the order of their positions; H or OH if unused. Positions of bridges follow the written chain, without caps; N, C: chain ends. Non-standard residues stand in square brackets, D forms with d. Residues, ends and D or L forms follow the SMILES beside them. Chains are numbered I, II in the order given. Actinocin(9to1) = Cc1c2oc3c(C)ccc(C(=O)[*:1])c3nc-2c(C(=O)[*:2])c(N)c1=O; NMeV = CN[C@H](C(=O)O)C(C)C; Sar = CNCC(=O)O

One test relates to U2OS cells (p53+). The experiment in a line: Potentiation of p53-dependent suppression of expression by antitumor agents (β-galactosidase activity). The format is cell-based. The protocol:
U2OS cells (p53+) that had been placed into six-well plates (6 x 10^5 cells per well) on the previous day were infected with AxYp53RECre at the indicated MOIs. Various compounds (actinomycin D, doxorubicin hydrochloride, etoposide, and nocodazole, all from Sigma, USA) were then added at the indicated concentrations. On the next day, the compounds were removed, and AxCAYLLZ was infected at the indicated MOIs. Six days later, crude extracts of infected cells were prepared and assayed for β-galactosidase activity similarly as described in 3-1). […]

The subject of test [1] is p53-Deficient Saos2 cells. The experiment in a line: Cell death specific to p53-deficient cells (ganciclovir sensitivity, viable cell number). The format is cell-based, human. The note with it: combination of AxYp53RECre, AxCAYLTK, and ganciclovir; Saos2 versus U20S cells. The method, then: p53-Deficient Saos2 cells and p53-expressing U20S cells were inoculated then cultured in the presence of 50 ng/ml nocodazole (Sigma, USA) on the next day. Nocodazole was removed on the following day, and the cells were infected with AxYp53RECre at the indicated MOIs. On the day after that, the cells were further infected with AxCAYLTK at the indicated MOIs. Three days later, infected cells were placed into 96-well plates at a quantity of 2000 cells/well, and various concentrations of ganciclovir (Nippon Roche) were added thereto. Seven days later, the number of viable cells was counted using a Cell Titer 96 AQueous Non-Radioactive Cell Proliferation Assay (Promega, USA). […] In this figure, "% viable cell number" refers to the relative number of cells compared to the number of cells in the absence of ganciclovir taken as 100. Mean values of five samples are shown. Error bars show standard deviations.

On to `COC(=O)Nc1nc2ccc(C(=O)c3cccs3)cc2[nH]1` [nocodazole], for which the “Remaining β-galactosidase activity” value in the test on U2OS cells (p53+) (AxCAYLLS MOI 10, pAxYp53RECre MOI 0, 50 ng/ml nocodazole (reference)) is listed as 100%; in the test with U2OS cells (p53+) (AxCAYLLS MOI 10, pAxYp53RECre MOI 10, 50 ng/ml nocodazole), 31%.
For the compound `Cc1c2oc3c(C)ccc(C(=O)N[C@@H]4C(=O)N[C@H](C(C)C)C(=O)N5CCC[C@H]5C(=O)N(C)CC(=O)N(C)[C@@H](C(C)C)C(=O)O[C@@H]4C)c3nc-2c(C(=O)N[C@@H]2C(=O)N[C@H](C(C)C)C(=O)N3CCC[C@H]3C(=O)N(C)CC(=O)N(C)[C@@H](C(C)C)C(=O)O[C@@H]2C)c(N)c1=O` [actinomycin D] (I: T[dV]P[Sar][NMeV] / II: T[dV]P[Sar][NMeV]; ester I:1-I:C, II:1-II:C; linker I:N-II:N via Actinocin(9to1)), the “Remaining β-galactosidase activity” value with U2OS cells (p53+) (AxCAYLLS MOI 10, pAxYp53RECre MOI 0, 10 ng/ml actinomycin D (reference)) was determined as 100%; in the test on U2OS cells (p53+) (AxCAYLLS MOI 10, pAxYp53RECre MOI 30, 10 ng/ml actinomycin D), 2.4%.
For `COc1cc([C@@H]2c3cc4c(cc3[C@@H](O[C@@H]3O[C@@H]5CO[C@@H](C)O[C@H]5[C@H](O)[C@H]3O)[C@H]3COC(=O)[C@H]23)OCO4)cc(OC)c1O` [etoposide], the “Remaining β-galactosidase activity” value was determined as 100% with U2OS cells (p53+) (AxCAYLLS MOI 10, pAxYp53RECre MOI 0, 1000 ng/ml etoposide (reference)) and 0.6% in the test with U2OS cells (p53+) (AxCAYLLS MOI 10, pAxYp53RECre MOI 30, 1000 ng/ml etoposide).
Consider `COc1cccc2c1C(=O)c1c(O)c3c(c(O)c1C2=O)C[C@@](O)(C(=O)CO)C[C@@H]3O[C@H]1C[C@H](N)[C@H](O)[C@H](C)O1` [doxorubicin, doxorubicin hydrochloride], for which the “Remaining β-galactosidase activity” value in the test with U2OS cells (p53+) (AxCAYLLS MOI 10, pAxYp53RECre MOI 0, 100 ng/ml doxorubicin (reference)) worked out at 100%; in the test on U2OS cells (p53+) (AxCAYLLS MOI 10, pAxYp53RECre MOI 30, 100 ng/ml doxorubicin) it was 0.5%.
`Nc1nc(O)c2ncn(COC(CO)CO)c2n1` [ganciclovir]: in test [1], the cell death result is reported as “caused cell death specific to p53-deficient cells”.
